Data reported in PMC8198871, “Suppression of Breast Cancer by Small Molecules That Block the Prolactin Receptor” (Cancers, 2021).

Legend:
[1] = molecular target: T1, hypocretin receptor 1 (HCRTR1) (Homo sapiens, UniProt O43613); assay: DiscoverX GPCR selectivity panel, multiple doses; format: cell-based
T1 sequence (O43613 1-425): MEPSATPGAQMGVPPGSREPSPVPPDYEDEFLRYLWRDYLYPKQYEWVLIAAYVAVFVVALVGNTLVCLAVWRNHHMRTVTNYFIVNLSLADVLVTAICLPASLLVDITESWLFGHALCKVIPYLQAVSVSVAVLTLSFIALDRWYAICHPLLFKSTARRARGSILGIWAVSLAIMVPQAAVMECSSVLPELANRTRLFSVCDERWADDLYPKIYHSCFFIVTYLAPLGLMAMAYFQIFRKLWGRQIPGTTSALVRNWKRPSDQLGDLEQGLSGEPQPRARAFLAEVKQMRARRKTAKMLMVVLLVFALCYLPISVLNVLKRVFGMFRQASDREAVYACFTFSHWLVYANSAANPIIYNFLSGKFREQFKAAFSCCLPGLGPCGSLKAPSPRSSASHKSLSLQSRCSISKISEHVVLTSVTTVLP

[2] = molecular target: T2, prolactin receptor (PRLR) (Homo sapiens, UniProt P16471); assay: microscale thermophoresis; confirmed by isothermal titration calorimetry; format: binding
T2 construct: extracellular domain (ECD), purified recombinant
T2 sequence (P16471 25-234 limits assumed): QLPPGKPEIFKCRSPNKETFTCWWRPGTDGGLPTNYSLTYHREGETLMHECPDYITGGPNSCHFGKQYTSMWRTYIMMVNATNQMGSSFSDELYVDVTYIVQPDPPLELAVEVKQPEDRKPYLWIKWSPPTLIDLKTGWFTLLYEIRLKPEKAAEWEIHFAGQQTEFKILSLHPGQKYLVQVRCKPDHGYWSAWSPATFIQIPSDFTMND

[3] = molecular target: T3, serotonin receptor 2C (HTR2C) (Homo sapiens, UniProt P28335); assay: DiscoverX GPCR selectivity panel, multiple doses; format: cell-based
T3 sequence (P28335 33-458): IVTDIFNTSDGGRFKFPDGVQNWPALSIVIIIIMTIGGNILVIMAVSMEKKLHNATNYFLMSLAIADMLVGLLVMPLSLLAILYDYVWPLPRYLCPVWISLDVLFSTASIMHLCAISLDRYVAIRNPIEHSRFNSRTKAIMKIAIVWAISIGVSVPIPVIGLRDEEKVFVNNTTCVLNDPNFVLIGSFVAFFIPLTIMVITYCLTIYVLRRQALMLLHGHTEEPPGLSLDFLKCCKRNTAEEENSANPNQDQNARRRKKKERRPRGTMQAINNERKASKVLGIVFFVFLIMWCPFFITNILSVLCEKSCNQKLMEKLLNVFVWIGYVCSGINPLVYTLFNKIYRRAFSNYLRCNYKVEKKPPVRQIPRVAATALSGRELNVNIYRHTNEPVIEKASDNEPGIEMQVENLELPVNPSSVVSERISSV

[4] = molecular target: serotonin receptor 2A (HTR2A) (Homo sapiens, UniProt P28223); assay: DiscoverX GPCR selectivity panel, multiple doses; format: cell-based
Chain of serotonin receptor 2A (HTR2A) (P28223 whole entry): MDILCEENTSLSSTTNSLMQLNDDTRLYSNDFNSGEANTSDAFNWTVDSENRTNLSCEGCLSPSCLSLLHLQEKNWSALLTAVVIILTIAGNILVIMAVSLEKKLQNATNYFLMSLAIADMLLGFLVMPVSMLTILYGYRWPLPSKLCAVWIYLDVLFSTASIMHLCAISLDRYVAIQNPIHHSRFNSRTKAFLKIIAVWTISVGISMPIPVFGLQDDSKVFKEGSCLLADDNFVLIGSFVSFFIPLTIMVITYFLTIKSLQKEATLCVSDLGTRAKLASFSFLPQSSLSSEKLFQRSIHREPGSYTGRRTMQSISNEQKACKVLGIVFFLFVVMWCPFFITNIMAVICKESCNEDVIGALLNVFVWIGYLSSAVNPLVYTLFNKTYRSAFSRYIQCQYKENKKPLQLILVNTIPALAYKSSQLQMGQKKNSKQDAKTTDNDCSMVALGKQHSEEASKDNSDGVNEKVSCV

SMILES: CCN(CC)c1ccc(/C=N/NC(=O)c2c(Cl)cnn2C)c(O)c1 [SMI-6]
- IC50 [1]: 6.71 µM
- Kd [2]: 3.31 µM
- IC50 [3]: 3.48 µM
- IC50 [4]: 2.39 µM
